Measured values published in US20220096516A1, “OLIGONUCLEOTIDE MOLECULE AND APPLICATION THEREOF IN TUMOR THERAPY” (Ractigen Therapeutics, priority 2019, published 2022).
d = 2'-deoxy (DNA); r = 2'-OH (RNA)

Test system: LHPP gene
Experiment: High-throughput screening of saRNAs targeting LHPP promoter: LHPP mRNA by one-step RT-qPCR in Huh7 cells
Format: cell-based, human
Conditions: 10 nM saRNA, 72 hours, relative to control (Mock)
In short: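 Huh7 cells were transfected with 10 nM saRNA using RNAiMax and lysed 72 h later. LHPP mRNA was quantified by one-step RT-qPCR in triplicate wells. Expression was normalised to HPRT1 and TBP and given as fold change versus mock-transfected cells.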

Substance | Fold of changes in relative LHPP mRNA expression level | Fold of changes in relative LHPP mRNA expression level (log2)
RAG7-826: saRNA duplex; sense AGGAAACUCCUCCCUUUUATT (SEQ ID NO: 157), antisense UAAAAGGGAGGAGUUUCCUTT (SEQ ID NO: 321) (sugars from the 5' end r19 d2, backbone not given here) | 1.11 fold | 0.15 log2
RAG7-851: saRNA duplex; sense CUUGAAAGGUUCCGAGGGGTT (SEQ ID NO: 163), antisense CCCCUCGGAACCUUUCAAGTT (SEQ ID NO: 327) (sugars from the 5' end r19 d2, backbone not given here) | 1.10 fold | 0.14 log2
RAG7-149: saRNA duplex; sense GUUUUCUGCUUUUCCUGCUTT (SEQ ID NO: 99), antisense AGCAGGAAAAGCAGAAAACTT (SEQ ID NO: 263) (sugars from the 5' end r19 d2, backbone not given here) | 1.22 fold | 0.29 log2
RAG7-93: saRNA duplex; sense AAGGACACCGUUUCAGGGGTT (SEQ ID NO: 144), antisense CCCCUGAAACGGUGUCCUUTT (SEQ ID NO: 308) (sugars from the 5' end r19 d2, backbone not given here) | 1.14 fold | 0.19 log2
RAG7-144: saRNA duplex; sense CUGCUUUUCCUGCUCUUUGTT (SEQ ID NO: 18), antisense CAAAGAGCAGGAAAAGCAGTT (SEQ ID NO: 182) (sugars from the 5' end r19 d2, backbone not given here) | 1.56 fold | 0.64 log2
RAG7-839: saRNA duplex; sense CGAGGGGCCAUUGAGGAAATT (SEQ ID NO: 158), antisense UUUCCUCAAUGGCCCCUCGTT (SEQ ID NO: 322) (sugars from the 5' end r19 d2, backbone not given here) | 1.11 fold | 0.15 log2
RAG7-702: saRNA duplex; sense CUCAGCCCAGGUCCUAUGCTT (SEQ ID NO: 140), antisense GCAUAGGACCUGGGCUGAGTT (SEQ ID NO: 304) (sugars from the 5' end r19 d2, backbone not given here) | 1.14 fold | 0.19 log2
RAG7-690: saRNA duplex; sense CCUAUGCAUCCUCAUCUAUTT (SEQ ID NO: 42), antisense AUAGAUGAGGAUGCAUAGGTT (SEQ ID NO: 206) (sugars from the 5' end r19 d2, backbone not given here) | 1.42 fold | 0.51 log2
RAG7-846: saRNA duplex; sense AAGGUUCCGAGGGGCCAUUTT (SEQ ID NO: 11), antisense AAUGGCCCCUCGGAACCUUTT (SEQ ID NO: 175) (sugars from the 5' end r19 d2, backbone not given here) | 1.68 fold | 0.75 log2
RAG7-715: saRNA duplex; sense GUCCCGUUUUCUUCUCAGCTT (SEQ ID NO: 148), antisense GCUGAGAAGAAAACGGGACTT (SEQ ID NO: 312) (sugars from the 5' end r19 d2, backbone not given here) | 1.13 fold | 0.18 log2
RAG7-160: saRNA duplex; sense CUUAGGGACUUGUUUUCUGTT (SEQ ID NO: 153), antisense CAGAAAACAAGUCCCUAAGTT (SEQ ID NO: 317) (sugars from the 5' end r19 d2, backbone not given here) | 1.11 fold | 0.15 log2
